# From patent publication US10323007B1, “N2N N4-disubstituted quinazoline-2,4-diamines and uses thereof” (University of South Florida, priority 2016, dated 2019)
# Like-named read-outs stand apart in the source and are kept apart here.
# Key:
# [1] = tested on: A. baumannii 1652; assay: minimal bactericidal concentration (MBC) assay, strain 1652; format: cell-based; conditions: Acinetobacter baumannii, Table 8, read-out: MBC90 1652
# Excerpt: (§1) Lead quinazolines 4, 5, 26, 29, 27, and 30 were selected to be further evaluated for antimicrobial effects. The first assay utilized was a minimal bactericidal concentration (MBC) assay, to assess whether leads compounds were bacteriostatic or bactericidal. The six lead agents were screened to identify their MBC90 towards each of the six A. baumannii isolates used in the SAR studies (Table 8), however for simplicity only the representative data for isolate 1646 is detailed below (Table 6). […] Further to this, we were able to obtain complete eradication of bacterial growth for these two compounds at 1 μM for 24 and 5 μM for 25.
# (§2) MIC and MBC assays were performed in this study as documented by us previously.^17,23,24,25 The A. baumannii strains used are detailed in Table 7.
# [2] = tested on: A. baumannii 1651; assay: MIC assay, strain 1651; format: cell-based, Acinetobacter baumannii; conditions: Acinetobacter baumannii, strain 1651
# Protocol: as §2
# [3] = tested on: A. baumannii 1651; assay: minimal bactericidal concentration (MBC) assay, strain 1651; format: cell-based; conditions: Acinetobacter baumannii, Table 8, read-out: MBC90 1651
# Excerpt: as §1, §2
# [4] = tested on: A. baumannii 1649; assay: minimal bactericidal concentration (MBC) assay, strain 1649; format: cell-based; conditions: Acinetobacter baumannii, Table 8, read-out: MBC90 1649
# Excerpt: as §1, §2
# [5] = tested on: human HepG2 cells; format: cell-based
# Protocol: Cytotoxicity assays were performed using human HepG2 cells (human liver epithelial with hepatocellular carcinoma), as described by us previously.^17,24 Cells were cultured in Dulbecco's modified eagle medium (DMEM), supplemented with 10% fetal bovine serum and 1% penicillin-streptomycin for 3 days at 37° C. and 5% CO2. Cells were then diluted to 1×10^5 ml^−1 using fresh DMEM and added to 96 well tissue culture plates at a volume of 100 μL. Plates were incubated for 24 hours at 37° C. and 5% CO2, allowing the cells to adhere to the plastic. […] Plates were then incubated for 48 hours at 37° C. and 5% CO2. After 48 hours the DMEM was removed and 100 μL of new media was added containing MTT (3-(4, 5-dimethylthiazol-2-yl)-2, 5-diphenyltetrazolium bromide), followed by incubation for four hours at 37° C. and 5% CO2. […] Lead compounds were solvated in 100% DMSO for these studies, which served as the negative control. LD50 values were determined for each compound by comparison to vehicle only controls.
# [6] = tested on: A. baumannii 1650 biofilm; assay: biofilm eradication determination assay, strain 1650; format: cell-based, Acinetobacter baumannii; conditions: 90% biofilm eradication, Table 8
# Protocol: (§3) These assays were performed as described by us previously,^26,24 as follows. Each of the A. baumannii strains were grown overnight in Mueller Hinton Broth (MHB). The next day these were used to seed fresh MHB to an OD600 of 0.5, with 150 μL then added to the wells of a 96 well plate and grown for 24 hours at 37° C. After 24 hours, the planktonic bacteria were carefully removed and fresh MHB was added with increasing concentrations of lead quinazolines. After incubation at 37° C. for 24 hours, planktonic cells were removed and biofilms were washed three times with phosphate buffered saline (PBS). Biofilms were then resuspended in PBS and plated for cell viability on tryptic soy agar. Biofilm recovery was assessed compared to no drug controls, and determined as percent eradication. This was used to determine MBEC90 values (Minimal Biofilm Eradication Concentration), where the viability of cells within the biofilm was reduced by 90%.
# [7] = tested on: A. baumannii 1646; assay: minimal bactericidal concentration (MBC) assay, strain 1646; format: cell-based, Acinetobacter baumannii
# Excerpt: as §1, §2
# [8] = tested on: A. baumannii 1646 biofilm; assay: biofilm eradication determination assay, strain 1646; format: cell-based, Acinetobacter baumannii
# Protocol: as §3
# [9] = tested on: A. baumannii 1651 biofilm; assay: biofilm eradication determination assay, strain 1651; format: cell-based, Acinetobacter baumannii; conditions: 90% biofilm eradication, Table 8
# Protocol: as §3
# [10] = tested on: A. baumannii 1403 biofilm; assay: biofilm eradication determination assay, strain 1403; format: cell-based, Acinetobacter baumannii; conditions: 90% biofilm eradication, Table 8
# Protocol: as §3
# [11] = tested on: A. baumannii 1650; assay: minimal bactericidal concentration (MBC) assay, strain 1650; format: cell-based; conditions: Acinetobacter baumannii, Table 8, read-out: MBC90 1650
# Excerpt: as §1, §2
# [12] = tested on: A. baumannii 1403; assay: minimal bactericidal concentration (MBC) assay, strain 1403; format: cell-based; conditions: Acinetobacter baumannii, Table 8, read-out: MBC90 1403
# Excerpt: as §1, §2
# [13] = tested on: A. baumannii 1403; assay: MIC assay, strain 1403; format: cell-based, Acinetobacter baumannii; conditions: Acinetobacter baumannii, strain 1403
# Protocol: as §2
# [14] = tested on: A. baumannii 1652; assay: MIC assay, strain 1652; format: cell-based, Acinetobacter baumannii; conditions: Acinetobacter baumannii, strain 1652
# Protocol: as §2
# [15] = tested on: A. baumannii 1650; assay: MIC assay, strain 1650; format: cell-based, Acinetobacter baumannii; conditions: Acinetobacter baumannii, strain 1650
# Protocol: as §2
# [16] = tested on: A. baumannii 1649; assay: MIC assay, strain 1649; format: cell-based, Acinetobacter baumannii; conditions: Acinetobacter baumannii, strain 1649
# Protocol: as §2
# [17] = tested on: A. baumannii 1652 biofilm; assay: biofilm eradication determination assay, strain 1652; format: cell-based, Acinetobacter baumannii; conditions: 90% biofilm eradication, Table 8
# Protocol: as §3
# [18] = tested on: A. baumannii strain 1403; format: cell-based, Acinetobacter baumannii; conditions: serial passage, 8 days, start 0.5× MIC
# Protocol: An important attribute of novel antibiotics is the ability to fend off the development of resistance towards their effects. To assess this capacity, A. baumannii strains were incubated overnight with 0.5× MIC of each of the frontrunners. The next day cells were washed and used to inoculate fresh media that contained a two-fold increase in drug. This was repeated for a total of 8 days, alongside sulfamethoxazole (SMX) and trimethoprim (TMP) controls, both of which target the same pathway as our lead agents (FIG. 2).
# In order to test potential resistance towards the quinazolines, a serial passage assay was performed alongside control compounds (Sulfamethoxazole and Trimethoprim), as described by us previously.^24 A. baumannii strain 1403 was grown overnight in LB media at 37° C. The next day cultures were diluted 1:100 in fresh media and seeded into a 96-well plate. Lead quinazolines or control agents were added to respective wells at half MIC concentrations. […] These were then grown overnight, and the procedure repeated for a total of eight days.
# [19] = tested on: A. baumannii 1649 biofilm; assay: biofilm eradication determination assay, strain 1649; format: cell-based, Acinetobacter baumannii; conditions: 90% biofilm eradication, Table 8
# Protocol: as §3
# [20] = tested on: A. baumannii 1646; assay: MIC assay, strain 1646; format: cell-based, Acinetobacter baumannii; conditions: Acinetobacter baumannii
# Protocol: as §2
# [21] = tested on: A. baumannii dihydrofolate reductase (DHFR) enzyme; assay: tetrahydrofolic acid in vitro rescue assay; format: cell-based; conditions: tetrahydrofolic acid 0-225 μM; 24 hours incubation
# Protocol: To evaluate the effect quinazolines have on DHFR reduction of dihydrofolic acid, a tetrahydrofolic acid assay was performed as described by us previously.^17 A. baumannii strain 1403 was grown overnight in LB, and then diluted 1:1000 into fresh media. These cultures were then seeded into a sterile 96-well plate with tetrahydrofolic acid added at concentrations ranging from 0 to 225 μM. […] MICs were determined and used to assess whether the addition of tetrahydrofolic acid rescued A. baumannii growth from quinazoline inhibition. Assays were repeated in triplicate, alongside trimethoprim and sulfamethoxazole controls.
# [22] = tested on: A. baumannii 1646; assay: murine model of lethal peritonitis; format: in vivo, mice; conditions: 30 mg kg^-1 intraperitoneal, one hour post challenge, 5 days
# Protocol: As a final assessment, we used a murine model of lethal A. baumannii infection to determine the efficacy of quinazolines in vivo. This was performed using frontrunner 5, which had the most promising properties from all of our biological testing. Accordingly, mice were inoculated with a lethal dose of A. baumannii via intraperitoneal injection on the right side of the abdomen. One hour post challenge, mice were treated with an intraperitoneal injection of 2 mg kg^−1 of frontrunner 5 on the left side of the abdomen. As a control, we also performed similar testing using 30 mg kg^−1 of tigecycline, which we already know our test strain to be susceptible to in vitro.
# Characteristics of pre-moribund state include: hunched posture, rapid, shallow and/or labored breathing, ruffled fur, lethargy, failure to respond to stimuli, soiled anogenital area, paralysis, paresis, head tilt, circling, vocalizations, non-purposeful movements, and/or were unable to eat or drink. Those mice reaching this state prior to the completion of the 5-day infection period were euthanized. The number of mice surviving between control and treatment groups was compared and analyzed for statistical significance using a log-rank (Mantel-Cox) test.
# [23] = tested on: human red blood cells
# Protocol: A hemolysis assay was performed using whole human blood (Bioreclamation), as described previously.^24 Briefly, human red blood cells (hRBCs) were resuspended in 20% v/v 1×HA buffer (4.25 mL 10% NaCl; 1 mL CaCl2) in 50 mL sterile water), before lead compounds were added at 2 μM, 10 μM and 20 μM, in a final volume of 100 μL. Cells were incubated for 15 minutes at 37° C. before being centrifuged at 5,500 g for 1 minute to pellet non-lysed hRBCs. The supernatant was removed, added to a 96-well Microtiter plate and the OD543 read using a BioTek Synergy2 plate reader. The negative control was vehicle only (DMSO), and the positive control was 1% triton X-100.
molecule,measurement,setting,value
"CNc1nc(NCc2ccccc2)nc2ccc(Br)cc12 [Compound 4, N^2-Benzyl-6-bromo-N^4-methylquinazoline-2,4-diamine]",MBC,[1],9.7 µM
same,MIC,"[2]; Table 2, read-out: 1651 MIC",8 µM
same,MIC,"[2]; lead quinazolines, Table 8, read-out: MIC 1651",5 µM
same,MBC,[3],2.1 µM
same,MBC,[4],4.7 µM
same,HepG2 cell viability,[5]; at 25 μM (highest concentration tested),43%
same,LD50(HepG2),"[5]; human, 48 h",23 µM
same,MBEC90 1650,[6],9.61 µM
same,MBC,"[7]; Acinetobacter baumannii, 1646, strain 1646, Table 8 and text, read-out: MBC90 1646",0.81 µM
same,MBC,"[7]; Acinetobacter baumannii, Table 6, representative data for isolate 1646, read-out: MBC90",0.8 µM
same,MBEC90,"[8]; Table 6, representative data for isolate 1646",3.3 µM
same,reduction in biofilm viability,"[8]; at 50 μM, strain 1646",3.6 log
same,MBEC90 1646,"[8]; strain 1646, 90% biofilm eradication, Table 8 and text",3.3 µM
same,MBEC90 1651,[9],37.34 µM
same,MBEC90 1403,[10],26 µM
same,MBC,[11],15 µM
same,MBC,[12],22 µM
same,MIC,"[13]; Table 2, read-out: 1403 MIC",50 µM
same,MIC,"[13]; lead quinazolines, Table 8, read-out: MIC 1403",25 µM
same,MIC,"[14]; Table 2, read-out: 1652 MIC",20 µM
same,MIC,"[14]; lead quinazolines, Table 8, read-out: MIC 1652",20 µM
same,MIC,"[15]; Table 2, read-out: 1650 MIC",15 µM
same,MIC,"[15]; lead quinazolines, Table 8, read-out: MIC 1650",12 µM
same,MIC,"[16]; Table 2, read-out: 1649 MIC",12 µM
same,MIC,"[16]; lead quinazolines, Table 8, read-out: MIC 1649",11 µM
same,MBEC90 1652,[17],>100 µM
same,increase in MIC over the 8-day test period,[18],4 fold
same,MBEC90 1649,[19],44.33 µM
same,MIC,"[20]; Table 6, representative data for isolate 1646, read-out: MIC",0.5 µM
same,MIC,"[20]; strain 1646, Table 2, read-out: 1646 MIC",2 µM
same,MIC,"[20]; strain 1646, lead quinazolines, Table 8, read-out: MIC 1646",0.5 µM
"CNc1nc(NCc2ccccc2)nc2ccc(C(C)C)cc12 [Compound 25, N^2-Benzyl-6-isopropyl-N^4-methylquinazoline-2,4-diamine]",MIC,"[2]; Tables 1, 3, 4, 5 and footnotes, read-out: 1651 MIC",35 µM
same,THF concentration sufficient to rescue bacterial growth,[21],10 µM
same,concentration giving complete eradication of bacterial growth,[7]; isolate 1646,5 µM
same,MIC,"[13]; Tables 1, 3, 4, 5 and footnotes, read-out: 1403 MIC",> 50 µM
same,MIC,"[14]; Tables 1, 3, 4, 5 and footnotes, read-out: 1652 MIC",> 50 µM
same,MIC,"[15]; Tables 1, 3, 4, 5 and footnotes, read-out: 1650 MIC",> 50 µM
same,MIC,"[16]; Tables 1, 3, 4, 5 and footnotes, read-out: 1649 MIC",35 µM
same,MIC,"[20]; strain 1646, Tables 1, 3, 4, 5 and footnotes, read-out: 1646 MIC",25 µM
"CN(C)c1cc(NC(=O)CNC(C)(C)C)c(O)c2c1C[C@H]1C[C@H]3[C@H](N(C)C)C(O)=C(C(N)=O)C(=O)[C@@]3(O)C(O)=C1C2=O [tigecycline, reference compound]",survival rate of infected animals,[22],66%
Triton X-100,lysis of human red blood cells,[23],100%
